From patent US10759783B2, “Biaryl inhibitors of Bruton'S tyrosine kinase” (BIOGEN MA INC., priority 2013, dated 2020)

Key:
BTK enzyme = target: T1, BTK enzyme (Homo sapiens, UniProt Q06187); assay: In vitro BTK kinase assay: BTK-POLYGAT-LS assay; type: biochemical; conditions: ATP 10 μM, read-out: IC50 (10uMATP)
T1 construct: purchased Upstate 14-552
Outline: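 Human BTK activity was measured with final 10 μM ATP and 100 nM polyGAT substrate in pH 7.5 Tris buffer with 10 mM MgCl2, DTT, Triton X-100 and casein.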

[1] = target: BTK (phospho-BTK) in human whole blood (Homo sapiens, UniProt Q06187); assay: In vitro PD assay in human whole blood (pBTK assay)
Chain of BTK (phospho-BTK) in human whole blood (Q06187 whole entry): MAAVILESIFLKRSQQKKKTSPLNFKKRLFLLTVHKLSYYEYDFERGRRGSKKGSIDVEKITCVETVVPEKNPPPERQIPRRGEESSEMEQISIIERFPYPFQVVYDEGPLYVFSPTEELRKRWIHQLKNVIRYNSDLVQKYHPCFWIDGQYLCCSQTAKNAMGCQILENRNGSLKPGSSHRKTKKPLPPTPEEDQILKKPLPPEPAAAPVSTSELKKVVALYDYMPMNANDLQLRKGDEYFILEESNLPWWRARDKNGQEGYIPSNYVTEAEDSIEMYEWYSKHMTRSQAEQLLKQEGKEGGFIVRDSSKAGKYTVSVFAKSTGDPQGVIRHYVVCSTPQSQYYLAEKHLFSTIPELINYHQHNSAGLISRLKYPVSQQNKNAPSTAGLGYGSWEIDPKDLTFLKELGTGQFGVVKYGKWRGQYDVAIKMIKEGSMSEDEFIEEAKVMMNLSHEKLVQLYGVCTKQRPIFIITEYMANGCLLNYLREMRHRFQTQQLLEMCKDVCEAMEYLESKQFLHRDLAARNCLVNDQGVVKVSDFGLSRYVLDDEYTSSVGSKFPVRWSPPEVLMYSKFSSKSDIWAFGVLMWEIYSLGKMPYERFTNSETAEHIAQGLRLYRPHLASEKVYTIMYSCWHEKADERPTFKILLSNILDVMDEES

T1 sequence (Q06187 whole entry): as above

| Structure (SMILES) | IC50 (BTK enzyme) [nM] | IC50 [1] [nM] |
| --- | --- | --- |
| CC(C)OC1CN(C(=O)NC2CCN(C3COC3)Cc3cc(-c4ccnc(Nc5cnn(C)c5)n4)ccc32)C1 (stereo not shown) [Example I-188, 3-isopropoxy-N-(8-(2-((1-methyl-1H-pyrazol-4-yl)amino)pyrimidin-4-yl)-2-(oxetan-3-yl)-2,3,4,5-tetrahydro-1H-benzo[c]azepin-5-yl)azetidine-1-carboxamide] | < 10 | 500 to 1500 |
| Cn1cc(Nc2nccc(-c3ccc4c(c3)OCCCC4NC(=O)N3CC(OC(C)(C)C)C3)n2)cn1 (stereo not shown) [Example I-189, 3-(tert-butoxy)-N-(8-(2-((1-methyl-1H-pyrazol-4-yl)amino)pyrimidin-4-yl)-2,3,4,5-tetrahydrobenzo[b]oxepin-5-yl)azetidine-1-carboxamide] | < 10 | < 500 |
| Cn1cc(Nc2nccc(-c3ccc(CNC(=O)N4CC(OC(C)(C)C)C4)c(CCO)c3)n2)cn1 [Example I-190, 3-(tert-butoxy)-N-(2-(2-hydroxyethyl)-4-(2-((1-methyl-1H-pyrazol-4-yl)amino)pyrimidin-4-yl)benzyl)azetidine-1-carboxamide] | < 10 | < 500 |
| Cn1cc(Nc2nccc(-c3ccc(CNC(=O)c4cnn(C(C)(C)C)c4)c(CCO)c3)n2)cn1 [Example I-191, 1-(tert-butyl)-N-(2-(2-hydroxyethyl)-4-(2-((1-methyl-1H-pyrazol-4-yl)amino)pyrimidin-4-yl)benzyl)-1H-pyrazole-4-carboxamide] | < 10 | < 500 |
| Cc1cc(-c2ccnc(Nc3cnn(C)c3)n2)ccc1CN1CCc2c(cnn2C(C)(C)C)C1=O [Example I-192, 1-(tert-butyl)-5-(2-methyl-4-(2-((1-methyl-1H-pyrazol-4-yl)amino)pyrimidin-4-yl)benzyl)-6,7-dihydro-1H-pyrazolo[4,3-c]pyridin-4(5H)-one] | < 10 | < 500 |
| Cc1cc(-c2cc(Nc3cc4n(n3)CCC4)ncn2)ccc1CNC(=O)c1cnn(C(C)(C)C)c1 [Example I-193, 1-(tert-butyl)-N-(4-(6-((5,6-dihydro-4H-pyrrolo[1,2-b]pyrazol-2-yl)amino)pyrimidin-4-yl)-2-methylbenzyl)-1H-pyrazole-4-carboxamide] | < 10 | < 500 |
| Cc1cc(-c2ccnc(Nc3cnn4c3CCC4)n2)ccc1CNC(=O)N1CCC(C(C)(C)C)C1 (stereo not shown) [Example I-194, 3-(tert-butyl)-N-(4-(2-((5,6-dihydro-4H-pyrrolo[1,2-b]pyrazol-3-yl)amino)pyrimidin-4-yl)-2-methylbenzyl)pyrrolidine-1-carboxamide] | < 10 | < 500 |
| Cn1cc(Nc2nccc(-c3ccc(CNC(=O)N4CC(OC(C)(C)C)C4)c(C(F)(F)F)c3)n2)cn1 [Example I-198, 3-(tert-butoxy)-N-(4-(2-((1-methyl-1H-pyrazol-4-yl)amino)pyrimidin-4-yl)-2-(trifluoromethyl)benzyl)azetidine-1-carboxamide] | < 10 | < 500 |
| CC(C)n1cc(Nc2nccc(-c3ccc(CNC(=O)N4CC(OC(C)(C)C)C4)c(C(F)(F)F)c3)n2)cn1 [Example I-199, 3-(tert-butoxy)-N-(4-(2-((1-isopropyl-1H-pyrazol-4-yl)amino)pyrimidin-4-yl)-2-(trifluoromethyl)benzyl)azetidine-1-carboxamide] | < 10 | < 500 |
| CN1CCC(n2cc(Nc3nccc(-c4ccc(CNC(=O)N5CC(OC(C)(C)C)C5)c(C(F)(F)F)c4)n3)cn2)CC1 [Example I-200, 3-(tert-butoxy)-N-(4-(2-((1-(1-methylpiperidin-4-yl)-1H-pyrazol-4-yl)amino)pyrimidin-4-yl)-2-(trifluoromethyl)benzyl)azetidine-1-carboxamide] | < 10 | < 500 |
| CCn1cc(Nc2nccc(-c3ccc(CNC(=O)N4CC(OC(C)(C)C)C4)c(C(F)(F)F)c3)n2)cn1 [Example I-203, 3-(tert-butoxy)-N-(4-(2-((1-ethyl-1H-pyrazol-4-yl)amino)pyrimidin-4-yl)-2-(trifluoromethyl)benzyl)azetidine-1-carboxamide] | < 10 | < 500 |
| COCCn1cc(Nc2nccc(-c3ccc(CNC(=O)N4CC(OC(C)(C)C)C4)c(C(F)(F)F)c3)n2)cn1 [Example I-204, 3-(tert-butoxy)-N-(4-(2-((1-(2-methoxyethyl)-1H-pyrazol-4-yl)amino)pyrimidin-4-yl)-2-(trifluoromethyl)benzyl)azetidine-1-carboxamide] | < 10 | < 500 |
| CC(C)(C)OC1CN(C(=O)NCc2ccc(-c3ccnc(Nc4cnn(CCO)c4)n3)cc2C(F)(F)F)C1 [Example I-205, 3-(tert-butoxy)-N-(4-(2-((1-(2-hydroxyethyl)-1H-pyrazol-4-yl)amino)pyrimidin-4-yl)-2-(trifluoromethyl)benzyl)azetidine-1-carboxamide] | < 10 | < 500 |
| CN1CC(n2cc(Nc3nccc(-c4ccc(CNC(=O)N5CC(OC(C)(C)C)C5)c(C(F)(F)F)c4)n3)cn2)C1 [Example I-206, 3-(tert-butoxy)-N-(4-(2-((1-(1-methylazetidin-3-yl)-1H-pyrazol-4-yl)amino)pyrimidin-4-yl)-2-(trifluoromethyl)benzyl)azetidine-1-carboxamide] | < 10 | < 500 |
| Cc1cc(-c2ccnc(Nc3cnn(CCO)c3)n2)ccc1CNC(=O)N1CC(OC(C)(C)C)C1 [Example I-214, 3-(tert-butoxy)-N-(4-(2-((1-(2-hydroxyethyl)-1H-pyrazol-4-yl)amino)pyrimidin-4-yl)-2-methylbenzyl)azetidine-1-carboxamide] | < 10 | < 500 |

Second part, the molecule after the results:

| IC50 (BTK enzyme) [nM] | IC50 [1] [nM] | Structure (SMILES) |
| --- | --- | --- |
| < 10 | < 500 | Cc1cc(-c2ccnc(Nc3cnn(C4CCN(C)CC4)c3)n2)ccc1CNC(=O)c1cc(C(C)(C)C)on1 [Example I-196, 5-(tert-butyl)-N-(2-methyl-4-(2-((1-(1-methylpiperidin-4-yl)-1H-pyrazol-4-yl)amino)pyrimidin-4-yl)benzyl)isoxazole-3-carboxamide] |
| < 10 | < 500 | Cc1cc(-c2ccnc(Nc3cnn(C4CCN(C)CC4)c3)n2)ccc1CNC(=O)c1cnn(C(C)(C)C)c1 [Example I-197, 1-(tert-butyl)-N-(2-methyl-4-(2-((1-(1-methylpiperidin-4-yl)-1H-pyrazol-4-yl)amino)pyrimidin-4-yl)benzyl)-1H-pyrazole-4-carboxamide] |
| < 10 | < 500 | CN1CC(n2cc(Nc3nccc(-c4ccc(CNC(=O)c5cnn(C(C)(C)C)c5)c(C(F)(F)F)c4)n3)cn2)C1 [Example I-201, 1-(tert-butyl)-N-(4-(2-((1-(1-methylazetidin-3-yl)-1H-pyrazol-4-yl)amino)pyrimidin-4-yl)-2-(trifluoromethyl)benzyl)-1H-pyrazole-4-carboxamide] |
| < 10 | < 500 | Cn1cc(Nc2nccc(-c3ccc(CNC(=O)c4cnn(C(C)(C)C)c4)c(C(F)(F)F)c3)n2)cn1 [Example I-202, 1-(tert-butyl)-N-(4-(2-((1-methyl-1H-pyrazol-4-yl)amino)pyrimidin-4-yl)-2-(trifluoromethyl)benzyl)-1H-pyrazole-4-carboxamide] |
| < 10 | < 500 | CN1CC[C@H](n2cc(Nc3nccc(-c4ccc(CNC(=O)N5CCC(C(C)(C)C)C5)c(C(F)(F)F)c4)n3)cn2)C1 (stereo partly drawn) [Example I-207, 3-(tert-butyl)-N-(4-(2-((1-((S)-1-methylpyrrolidin-3-yl)-1H-pyrazol-4-yl)amino)pyrimidin-4-yl)-2-(trifluoromethyl)benzyl)pyrrolidine-1-carboxamide] |
| < 10 | < 500 | CN1CC[C@@H](n2cc(Nc3nccc(-c4ccc(CNC(=O)N5CCC(C(C)(C)C)C5)c(C(F)(F)F)c4)n3)cn2)C1 (stereo partly drawn) [Example I-208, 3-(tert-butyl)-N-(4-(2-((1-((R)-1-methylpyrrolidin-3-yl)-1H-pyrazol-4-yl)amino)pyrimidin-4-yl)-2-(trifluoromethyl)benzyl)pyrrolidine-1-carboxamide] |
| < 10 | < 500 | CC(C)(C)C1CCN(C(=O)NCc2ccc(-c3ccnc(Nc4cnn(CCO)c4)n3)cc2C(F)(F)F)C1 (stereo not shown) [Example I-209, 3-(tert-butyl)-N-(4-(2-((1-(2-hydroxyethyl)-1H-pyrazol-4-yl)amino)pyrimidin-4-yl)-2-(trifluoromethyl)benzyl)pyrrolidine-1-carboxamide] |
| < 10 | < 500 | Cn1cc(Nc2nccc(-c3ccc(CNC(=O)N4CCC(C(C)(C)C)C4)c(C#N)c3)n2)cn1 (stereo not shown) [Example I-210, 3-(tert-butyl)-N-(2-cyano-4-(2-((1-methyl-1H-pyrazol-4-yl)amino)pyrimidin-4-yl)benzyl)pyrrolidine-1-carboxamide] |
| < 10 | < 500 | Cn1cc(Nc2nccc(-c3ccc(CNC(=O)c4cnn(C(C)(C)C)c4)c(C#N)c3)n2)cn1 [Example I-211, 1-(tert-butyl)-N-(2-cyano-4-(2-((1-methyl-1H-pyrazol-4-yl)amino)pyrimidin-4-yl)benzyl)-1H-pyrazole-4-carboxamide] |
| < 10 | < 500 | CNC(=O)C(C)(C)n1cc(Nc2nccc(-c3ccc(CNC(=O)N4CC(OC(C)C)C4)c(C)c3)n2)cn1 [Example I-212, 3-isopropoxy-N-(2-methyl-4-(2-((1-(2-methyl-1-(methylamino)-1-oxopropan-2-yl)-1H-pyrazol-4-yl)amino)pyrimidin-4-yl)benzyl)azetidine-1-carboxamide] |
| < 10 | < 500 | COCCn1cc(Nc2nccc(-c3ccc(CNC(=O)N4CC(OC(C)C)C4)c(C)c3)n2)cn1 [Example I-213, 3-isopropoxy-N-(4-(2-((1-(2-methoxyethyl)-1H-pyrazol-4-yl)amino)pyrimidin-4-yl)-2-methylbenzyl)azetidine-1-carboxamide] |
